# Measured values reported in BigSolDB 2.1.
compound,measurement,setting,value
COc1cc(/C=C/C(=O)O)cc(OC)c1OC,solubility (mole fraction),"in acetone, 278.15 K",0.0175
same,solubility (mole fraction),"in acetone, 283.15 K",0.0201
same,solubility (mole fraction),"in acetone, 288.15 K",0.0232
same,solubility (mole fraction),"in acetone, 293.15 K",0.0265
same,solubility (mole fraction),"in acetone, 298.15 K",0.0301
same,solubility (mole fraction),"in acetone, 303.15 K",0.0343
same,solubility (mole fraction),"in acetone, 308.15 K",0.0391
same,solubility (mole fraction),"in acetone, 313.15 K",0.044
same,solubility (mole fraction),"in acetone, 318.15 K",0.0492
same,solubility (mole fraction),"in acetone, 323.15 K",0.0551
same,solubility (mole fraction),"in ethanol, 278.15 K",0.00626
same,solubility (mole fraction),"in ethanol, 283.15 K",0.0085
same,solubility (mole fraction),"in ethanol, 288.15 K",0.0114
same,solubility (mole fraction),"in ethanol, 293.15 K",0.0153
same,solubility (mole fraction),"in ethanol, 298.15 K",0.0201
same,solubility (mole fraction),"in ethanol, 303.15 K",0.0261
same,solubility (mole fraction),"in ethanol, 308.15 K",0.0341
same,solubility (mole fraction),"in ethanol, 313.15 K",0.044
same,solubility (mole fraction),"in ethanol, 318.15 K",0.057
same,solubility (mole fraction),"in ethanol, 323.15 K",0.0725
same,solubility (mole fraction),"in isopropanol, 278.15 K",0.00465
same,solubility (mole fraction),"in isopropanol, 283.15 K",0.0063
same,solubility (mole fraction),"in isopropanol, 288.15 K",0.00867
same,solubility (mole fraction),"in isopropanol, 293.15 K",0.0121
same,solubility (mole fraction),"in isopropanol, 298.15 K",0.0163
same,solubility (mole fraction),"in isopropanol, 303.15 K",0.0215
same,solubility (mole fraction),"in isopropanol, 308.15 K",0.0289
same,solubility (mole fraction),"in isopropanol, 313.15 K",0.039
same,solubility (mole fraction),"in isopropanol, 318.15 K",0.0511
same,solubility (mole fraction),"in isopropanol, 323.15 K",0.0665
same,solubility (mole fraction),"in methanol, 278.15 K",0.00662
same,solubility (mole fraction),"in methanol, 283.15 K",0.00922
same,solubility (mole fraction),"in methanol, 288.15 K",0.0127
same,solubility (mole fraction),"in methanol, 293.15 K",0.0175
same,solubility (mole fraction),"in methanol, 298.15 K",0.0236
same,solubility (mole fraction),"in methanol, 303.15 K",0.0315
same,solubility (mole fraction),"in methanol, 308.15 K",0.0417
same,solubility (mole fraction),"in methanol, 313.15 K",0.0548
same,solubility (mole fraction),"in methanol, 318.15 K",0.0717
same,solubility (mole fraction),"in methanol, 323.15 K",0.0943
same,solubility (mole fraction),"in water, 278.15 K",4.67e-05
same,solubility (mole fraction),"in water, 283.15 K",5.3e-05
same,solubility (mole fraction),"in water, 288.15 K",6.05e-05
same,solubility (mole fraction),"in water, 293.15 K",6.8e-05
same,solubility (mole fraction),"in water, 298.15 K",7.61e-05
same,solubility (mole fraction),"in water, 303.15 K",8.55e-05
same,solubility (mole fraction),"in water, 308.15 K",9.58e-05
same,solubility (mole fraction),"in water, 313.15 K",0.000107
same,solubility (mole fraction),"in water, 318.15 K",0.000118
same,solubility (mole fraction),"in water, 323.15 K",0.000131
